# Patent publication US20260132129A1 (Genesis Therapeutics, Inc., priority 2022, published 2026)
# Target: T1, PI3Kα H1047R (T47D cells) (Homo sapiens, UniProt P42336, H1047R)
# T1 construct: endogenous in cells; host or cells: T47D cells
# Assay: PI3Kα cellular assay: pAKT HTRF in T47D cells after EGF stimulation
# Format: cell-based
# Conditions: for IC50: T47D cells (PI3Kα H1047R), pAKT S473 HTRF, EGF stimulation; for T47D pAKT S473 HTRF IC50 (H1047R): T47D (H1047R) selectivity over SKBR3 (WT): selectivity of T47D (H1047R) over SKBR3 (WT) pAKT IC50
# Summary of the method: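 T47D cells (PIK3CA H1047R) serum-starved 16 h, then treated 1 h at 37 °C with compound (10,000 nM top, 3-fold steps to 0.5 nM). After 10 min stimulation with 20 ng/mL EGF, cells were lysed and pAKT measured by HTRF.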
# T1 sequence (P42336 whole entry H1047R): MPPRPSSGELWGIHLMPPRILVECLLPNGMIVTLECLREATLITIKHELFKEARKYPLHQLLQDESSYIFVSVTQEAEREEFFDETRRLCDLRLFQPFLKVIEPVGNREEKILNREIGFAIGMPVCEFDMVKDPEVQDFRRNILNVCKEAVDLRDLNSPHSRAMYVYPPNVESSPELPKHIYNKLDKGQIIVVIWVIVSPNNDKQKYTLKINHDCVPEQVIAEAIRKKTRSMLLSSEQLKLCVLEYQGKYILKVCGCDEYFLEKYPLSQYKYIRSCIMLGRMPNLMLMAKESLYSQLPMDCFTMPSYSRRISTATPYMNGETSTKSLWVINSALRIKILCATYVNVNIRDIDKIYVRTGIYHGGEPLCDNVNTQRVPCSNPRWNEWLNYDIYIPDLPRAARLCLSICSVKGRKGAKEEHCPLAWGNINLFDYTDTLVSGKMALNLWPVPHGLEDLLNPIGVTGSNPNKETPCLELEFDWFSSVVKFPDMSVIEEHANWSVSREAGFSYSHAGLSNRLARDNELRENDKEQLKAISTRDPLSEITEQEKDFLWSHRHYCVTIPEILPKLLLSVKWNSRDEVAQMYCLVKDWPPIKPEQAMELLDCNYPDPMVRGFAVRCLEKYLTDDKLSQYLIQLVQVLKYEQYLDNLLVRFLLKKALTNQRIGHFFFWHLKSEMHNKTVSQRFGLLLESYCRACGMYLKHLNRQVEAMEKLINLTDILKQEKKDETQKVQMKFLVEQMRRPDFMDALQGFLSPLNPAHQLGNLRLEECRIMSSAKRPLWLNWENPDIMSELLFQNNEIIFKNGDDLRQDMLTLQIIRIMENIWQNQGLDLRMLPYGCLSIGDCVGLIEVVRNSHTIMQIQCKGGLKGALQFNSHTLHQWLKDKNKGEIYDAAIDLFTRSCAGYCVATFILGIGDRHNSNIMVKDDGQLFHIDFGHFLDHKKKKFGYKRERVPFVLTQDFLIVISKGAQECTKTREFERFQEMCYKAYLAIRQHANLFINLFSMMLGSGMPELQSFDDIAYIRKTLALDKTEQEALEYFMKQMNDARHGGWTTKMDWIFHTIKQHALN
# T1 sequence (P27986 whole entry partner): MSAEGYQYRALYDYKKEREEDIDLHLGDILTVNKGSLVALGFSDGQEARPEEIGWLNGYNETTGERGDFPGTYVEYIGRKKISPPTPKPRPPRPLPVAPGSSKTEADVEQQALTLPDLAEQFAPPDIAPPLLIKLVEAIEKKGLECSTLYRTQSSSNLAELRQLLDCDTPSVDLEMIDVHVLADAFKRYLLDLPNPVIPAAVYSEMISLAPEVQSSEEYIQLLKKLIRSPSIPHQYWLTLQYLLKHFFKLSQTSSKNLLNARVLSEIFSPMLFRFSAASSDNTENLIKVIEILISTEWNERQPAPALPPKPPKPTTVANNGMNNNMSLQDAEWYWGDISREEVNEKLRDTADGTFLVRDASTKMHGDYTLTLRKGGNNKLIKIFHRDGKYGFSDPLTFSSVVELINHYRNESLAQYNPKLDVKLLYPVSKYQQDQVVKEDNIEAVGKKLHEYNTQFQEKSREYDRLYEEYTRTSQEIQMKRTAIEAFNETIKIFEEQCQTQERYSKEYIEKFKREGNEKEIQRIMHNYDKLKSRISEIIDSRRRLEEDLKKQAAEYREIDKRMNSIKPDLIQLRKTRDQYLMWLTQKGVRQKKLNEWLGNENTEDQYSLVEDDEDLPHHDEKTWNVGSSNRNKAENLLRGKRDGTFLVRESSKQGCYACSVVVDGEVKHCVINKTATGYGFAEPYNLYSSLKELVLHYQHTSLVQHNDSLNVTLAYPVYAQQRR
IC50,T47D pAKT S473 HTRF IC50 (H1047R): T47D (H1047R) selectivity over SKBR3 (WT),SMILES
> 2 µM,C (C denotes ≤5-fold),CC(=O)Nc1nn(C)c2ccc(-c3cc(=O)n4cc(C)cc(C(C)Nc5ccccc5C(=O)O)c4n3)cc12 (centres unmarked) [Compound 792]
> 2 µM,C (C denotes ≤5-fold),CC(=O)Nc1nn(C)c2ccc(-c3cc(=O)n4cc(C)cc([C@@H](C)Nc5ccccc5C(=O)O)c4n3)cc12 [Compound 793]
0.1 to 0.5 µM,A (A denotes >20-fold),C=C(C)Nc1nn(C)c2ccc(-c3cc(=O)n4cc(C)cc([C@H](C)Nc5ccccc5C(=O)O)c4n3)cc12 [Compound 794]
> 2 µM,C (C denotes ≤5-fold),C=C(C)N1CCC([C@@H]2C[C@@H]3CN(c4cc(=O)n5cc(C)cc([C@H](C)Nc6ccccc6C(=O)O)c5n4)C[C@@H]3C2)CC1 [Compound 796]
> 2 µM,C (C denotes ≤5-fold),Cc1cc([C@@H](C)Nc2ccccc2C(=O)O)c2nc(-c3ccc4c(c3)c(C)cn4C)cc(=O)n2c1 [Compound 797]
< 0.1 µM,A (A denotes >20-fold),Cc1cc([C@H](C)Nc2ccccc2C(=O)O)c2nc(-c3ccc4c(c3)c(C)cn4C)cc(=O)n2c1 [Compound 798]
> 2 µM,C (C denotes ≤5-fold),Cc1cc(C(C)Nc2ccccc2C(=O)O)c2nc(-n3cnc4ccc(O)cc43)cc(=O)n2c1 (centres unmarked) [Compound 799]
> 2 µM,C (C denotes ≤5-fold),Cc1cc(C(C)Nc2ccccc2C(=O)O)c2nc(-n3cnc4ccc(O)cc43)cc(=O)n2c1 (centres unmarked) [Compound 801]
> 2 µM,C (C denotes ≤5-fold),Cc1cc([C@@H](C)Nc2cccc3nonc23)c2nc(N3CCOCC3)cc(=O)n2c1 [Compound 802]
> 2 µM,C (C denotes ≤5-fold),Cc1cc([C@H](C)Nc2ccccc2C(=O)O)c2nc(-c3cnc4c(c3)c(C)c(C)n4C)c(C)c(=O)n2c1 [Compound 805]
> 2 µM,C (C denotes ≤5-fold),Cc1cc(CCNc2ccc(F)cc2C(=O)O)c2nc(N3CCOCC3)cc(=O)n2c1 [Compound 806]
> 2 µM,C (C denotes ≤5-fold),Cc1cc([C@H](C)Nc2ccccc2C(=O)O)c2nc(-c3ccc4c(c3)c(C(F)F)nn4C)cc(=O)n2c1 [Compound 808]
< 0.1 µM,A (A denotes >20-fold),Cc1cc([C@@H](C)Nc2ccccc2C(=O)O)c2nc(-c3ccc4snc(N)c4c3)cc(=O)n2c1 [Compound 809]
> 2 µM,C (C denotes ≤5-fold),Cc1cc([C@H](C)Nc2ccccc2C(=O)O)c2nc(-c3ccc4snc(N)c4c3)cc(=O)n2c1 [Compound 810]
0.5 to 2 µM,B (B denotes 20-fold≥value>5-fold),Cc1cc([C@H](C)Nc2ccccc2C(=O)O)c2nc(-c3cc4c(cc3C)CC(N)=N4)cc(=O)n2c1 [Compound 811]
> 2 µM,C (C denotes ≤5-fold),Cc1cc([C@H](C)Nc2ccccc2C(=O)O)c2nc(-c3cnc4cc(O)ccn34)cc(=O)n2c1 [Compound 812]
> 2 µM,C (C denotes ≤5-fold),Cc1cc(C(C)Nc2ccccc2C(=O)O)c2nc(-c3c(C)ccc4[nH]ncc34)c(C)c(=O)n2c1 (centres unmarked) [Compound 813]

IC50,T47D pAKT S473 HTRF IC50 (H1047R): T47D (H1047R) selectivity over SKBR3 (WT),SMILES
> 2 µM,C (C denotes ≤5-fold),Cc1cc([C@H](C)Nc2ccccc2C(=O)O)c2nc(-c3c(C)ccc4[nH]ncc34)cc(=O)n2c1 [Compound 814]
> 2 µM,C (C denotes ≤5-fold),Cc1cc([C@H](C)Nc2ccccc2C(=O)O)c2nc(-c3c(C)ccc4c3cnn4C)cc(=O)n2c1 [Compound 815]
> 2 µM,C (C denotes ≤5-fold),Cc1cc([C@@H](C)Nc2ccccc2C(=O)O)c2nc(-c3c(C)ccc4c3cnn4C)cc(=O)n2c1 [Compound 816]
> 2 µM,C (C denotes ≤5-fold),Cc1cc(C(C)Nc2ccccc2C(=O)O)c2nc(-c3c(C)ccc4c3cnn4C)cc(=O)n2c1 (centres unmarked) [Compound 817]
< 0.1 µM,A (A denotes >20-fold),Cc1cc(C(C)Nc2ccccc2C(=O)O)c2nc(-c3ccc4c(C)nn(C)c4c3)cc(=O)n2c1 (centres unmarked) [Compound 818]
< 0.1 µM,A (A denotes >20-fold),Cc1cc([C@@H](C)Nc2ccccc2C(=O)O)c2nc(-c3ccc4c(C)nn(C)c4c3)cc(=O)n2c1 [Compound 819]
,C (C denotes ≤5-fold),Cc1cc([C@H](C)Nc2ccccc2C(=O)O)c2nc(-c3ccc4c(C)nn(C)c4c3)cc(=O)n2c1 [Compound 820]
0.1 to 0.5 µM,A (A denotes >20-fold),Cc1cc(C(C)Nc2ccccc2C(=O)O)c2nc(-c3ccc4c(c3)CC(F)(F)C4)cc(=O)n2c1 (centres unmarked) [Compound 821]
< 0.1 µM,A (A denotes >20-fold),Cc1cc([C@@H](C)Nc2ccccc2C(=O)O)c2nc(-c3ccc4c(c3)CC(F)(F)C4)cc(=O)n2c1 [Compound 822]
> 2 µM,C (C denotes ≤5-fold),Cc1cc([C@H](C)Nc2ccccc2C(=O)O)c2nc(-c3ccc4c(c3)CC(F)(F)C4)cc(=O)n2c1 [Compound 823]
0.5 to 2 µM,B (B denotes 20-fold≥value>5-fold),Cc1cc([C@@H](C)Nc2ccccc2C(=O)O)c2nc(-n3cnc4ccc(O)cc43)cc(=O)n2c1 [Compound 826]
> 2 µM,C (C denotes ≤5-fold),CC(=O)N=S(C)(=O)c1ccccc1N[C@H](C)c1cc(C)cn2c(=O)cc(N3CCOCC3)nc12 (some centres unmarked) [Compound 827]
0.5 to 2 µM,B (B denotes 20-fold≥value>5-fold),CC(=O)N=S(C)(=O)c1ccccc1N[C@@H](C)c1cc(C)cn2c(=O)cc(N3CCOCC3)nc12 (some centres unmarked) [Compound 828]
> 2 µM,C (C denotes ≤5-fold),CCC(=O)N=S(C)(=O)c1ccccc1N[C@@H](C)c1cc(C)cn2c(=O)cc(N3CCOCC3)nc12 (some centres unmarked) [Compound 829]
0.5 to 2 µM,B (B denotes 20-fold≥value>5-fold),Cc1cc(C(C)Nc2ccccc2-c2ccnnc2)c2nc(N3Cc4ccccc4C3)c(C3CC3)c(=O)n2c1 (centres unmarked) [Compound 832]
0.1 to 0.5 µM,A (A denotes >20-fold),Cc1cc(C(C)Nc2ccccc2C(=O)O)c2nc(-c3ccc4c(c3)CC(F)(F)C4)c(C)c(=O)n2c1 (centres unmarked) [Compound 833]
